Data: ChEMBL document CHEMBL1133758, “Docking-based development of purine-like inhibitors of cyclin-dependent kinase-2” (J Med Chem, 2000)

Tests used:
[1] = biological target: Cyclin-dependent kinase 1 (Homo sapiens, UniProt P06493); experiment: Inhibition of Cyclin-dependent kinase 1
[2] = biological target: Cyclin-dependent kinase 2 (Homo sapiens, UniProt P24941); experiment: Inhibition of Cyclin-dependent kinase 2

Cyclin-dependent kinase 1, sequence (P06493 whole entry): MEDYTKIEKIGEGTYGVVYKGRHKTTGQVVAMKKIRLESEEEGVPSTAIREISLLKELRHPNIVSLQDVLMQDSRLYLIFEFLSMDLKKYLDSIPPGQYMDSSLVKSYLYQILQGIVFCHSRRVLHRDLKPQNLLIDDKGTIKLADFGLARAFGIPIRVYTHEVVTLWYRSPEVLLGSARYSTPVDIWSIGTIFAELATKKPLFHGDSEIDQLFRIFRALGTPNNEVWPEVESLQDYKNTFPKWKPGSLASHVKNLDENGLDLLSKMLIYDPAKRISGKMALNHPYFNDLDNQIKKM

SMILES	IC50 [1]	IC50 [2]
CC(C)n1cnc2c(NC3CCCC3)nc(NCCCO)nc21	2.4 µM	0.9 µM
CC(C)n1cnc2c(NC34CC5CC(CC(C5)C3)C4)nc(NCCCO)nc21	> 100 µM	> 100 µM
CC(C)n1cnc2c(N)nc(NCCCO)nc21	10 µM	2.4 µM
CC(C)n1cnc2c(NCc3ccccc3)nc(NC[C@@H](C)O)nc21		0.2 µM
CC(C)C(CO)Nc1nc(NCc2cccc(O)c2)c2ncn(C(C)C)c2n1 (stereo unspecified)		0.03 µM
CC(C)n1cnc2c(NCc3ccccc3)ncnc21	3.5 µM	4.5 µM
CC(C)n1cnc2c(NCc3ccccc3)nc(NCCCO)nc21 [BOHEMINE]		0.8 µM
